Assays:
[1] = tested on: xylene-induced ear swelling in mice; test: Xylene-induced ear swelling in mice; assay type: in vivo; conditions: 200 mg/kg (positive control)
Method: 80 Kunming mice were divided into 8 groups with 10 mice for each group and numbered. A physiological saline group was used as a blank control group, an aspirin group (200 mg/kg) was used as a positive control group, and fusion protein I, protein II, protein III, protein IV and protein V at high, medium and low doses (128, 32, 8 mg/kg) were used as experimental groups. Mice were administered once by injection, while EDSM needed to be administered twice a day for 5 consecutive days. The blank control group was given an equal volume of physiological saline. After the fifth day, 0.05 mL of xylene was applied to both sides of the right ears of the mice to induce inflammation, and the left ears were not applied and were normal ears. After 2 h, the mice were sacrificed by dislocation, and the ears were cut along the auricle. Ear pieces were taken with a puncher and weighed, and the swelling degree and swelling rate were calculated. Swelling degree=right ear piece weight-left ear piece weight, swelling rate=(swelling degree/left ear piece weight)×100%.

[2] = tested on: human umbilical vein endothelial cells (HUVEC); test: Three-dimensional transwell assay, migration of HUVEC; assay type: cell-based; conditions: dose 8.0 · 10^−6 μg/mL
Method: Human umbilical vein endothelial cells (HUVECs) were cultured with endothelial cell culture fluid containing 5% fetal bovine serum and 1×ECGS in a 5% CO2 incubator at 37° C., to a confluence of 90% or more, and then inhibitory effects of fusion protein I, protein II, protein III, protein IV, and protein V on migration of endothelial cells were detected by transwell assay, in which only endothelial cells HUVEC of passage 2 to 8 were used, and the specific operation was as follows.
(1) 10 mg/mL Matrigel was diluted with a DMEM medium at a ratio of 1:4, coated on a transwell chamber membrane, and air-dried at room temperature.
(2) HUVEC cells cultured to logarithmic phase were digested with 0.2% EDTA, collected, washed twice with PBS, followed by resuspended in an endothelial cell culture liquid containing 0.1% BSA, counted under a microscope, and the cell concentration was adjusted to 1×10^5 cells/mL;
(3) Test solutions for each group were formulated and diluted to 100 μL with a cell culture liquid containing 0.1% BSA;
Groups were divided as follows:
Blank control group: a cell culture liquid containing no drug;
Endostar group: 5 mg/mL Endostar solution diluted to a predetermined concentration with a cell culture liquid containing no drug; […]
(4) The cells were inoculated into a transwell chamber at 100 μL per well, and test solutions for each group were added to the chamber. To a 24-well plate, 0.6 mL of endothelial cell culture liquid containing 5% fetal bovine serum and 1×ECGS was added to stimulate cell migration, and incubated at 5% CO2 for 24 h at 37° C.
(5) The culture liquid in the well was discarded. The cells were fixed with 90% alcohol at room temperature for 30 min, stained with 0.1% crystal violet for 10 min at room temperature, and rinsed with water. Un-migrated cells in the upper layer were gently wiped off by a cotton swab. The observation was carried out under microscope and four fields of view were selected for taking photos and counting. The migration inhibition (MI) was calculated according to the formula: […]
where Ntest is the migration cell number in the test group, and Ncontrol is the migration cell number in the blank control group.
The test was repeated 3 times independently. The results obtained from the test were calculated as mean±SD, and statistical t-test was performed. P<0.05 was considered as a significant difference, and P<0.01 was considered as an extremely significant difference.

[3] = tested on: adjuvant arthritis in rat; test: Chronic inflammation of adjuvant arthritis in rat; assay type: in vivo; design: key to Clinical score Whole body: sum of hind/fore foot, ear, nose, tail scores; full score 8
Method: 80 SPF SD rats were randomly divided into 8 groups. Rats in each group were lightly anesthetized with ether. Then, 0.1 mL of complete Freund's adjuvant containing inactivated Mycobacterium tuberculosis was injected subcutaneously into the left hind foot of the rats. Primary arthritis occurred in the left hind foot of the rat, and at about 13 days post-modeling, secondary arthritis occurred in the right hind foot. A blank control group was injected with an equal volume of physiological saline. The drug was administered 13 days after modeling. A methotrexate group was administered by injection every 5 days for 15 days, 4 times in total; the fusion protein I, protein II, protein III, protein IV, and protein V at high, medium and low doses (128 mg/kg, 32 mg/kg, 8 mg/kg) were administered by injection every 5 days for 15 days.
Using a foot volume measuring method, a marker was made with a fat-soluble marker at the left and right posterior ankle joint of each rat, and the left and right hind feet of the animal were respectively immersed in the volume measuring device. The immersion depth was bounded by the marker, and the reading value at the scale pipette of the device was the initial volume of the animal's left and right hind feet.
The day of modeling was considered as the 0th day and recorded as d0. The volume of the left hind foot (modeling foot) was measured from the first day d1 after modeling every 2 days. When the swelling occurred (i.e., secondary arthritis occurred) at the contralateral non-inflammatory foot (right hind foot), the administration was started. The volume of the left and right hind feet was measured every 2 days, and the degree of primary and secondary toe swelling was determined, which was calculated as follows:
Primary toe swelling (mL)=left hind foot volume on the day of measurement-initial volume of left hind foot
Secondary toe swelling (mL)=right hind foot volume on the day of measurement-initial volume of right hind foot 2. Clinical score
Systemic score: the systemic score was taken every 2 days after the onset of secondary inflammation.
Hind foot: no swelling=0 score, one hind foot swelling=1 score, two hind feet swelling=2 scores;
Forefoot: no swelling=0 score, one forefoot swelling=1 score, two forefeet swelling=2 scores;
Ear: no redness and nodules=0 score, redness or nodules in one ear=1 score, redness and nodules in both ears=2 scores;
Nose: no swelling=0 score, obvious swelling=1 score;
Tail: no nodules=0 score, with nodules=1 score; full score was 8 scores.
Arthritis index score: the arthritis index score was performed every 2 days after the onset of secondary inflammation.
The initial body weight of each group of rats was weighed before modeling. The body weight was measured every 2 days from d1 after modeling, from which the initial body weight was subtracted to obtain the weight gain of each group of rats.

[4] = tested on: human retinal vascular endothelial cell (HRCEC); test: MTT assay, proliferation of human retinal vascular endothelial cell (HRCEC); assay type: cell-based; conditions: 5 μg/mL (positive control), 48 hours
Method: The activity of the integrin blocker polypeptide to inhibit proliferation of human retinal vascular endothelial cells was examined by MTT assay. HRCEC cells were cultured in a 5% CO2 incubator at 37° C. to a density of 90% or more, and then collected by trypsinization. The cells were resuspended in the culture liquid and counted under a microscope. The cell concentration was adjusted to 3.0×10^4 cells/mL. The cell suspension was inoculated into a 96-well plate at 100 μL per well and cultured in a 5% CO2 incubator at 37° C. overnight. […] After the cells were fully adhered, each dilution was added to a 96-well plate at 100 μL per well, respectively. […] 20 μL of 5 mg/mL MTT was added to each well of a 96-well plate, and incubation was continued for 4 hours. The medium was aspirated and 100 μL of DMSO was added per well for dissolution. The absorbance was measured at 570 nm with a microplate reader with a reference wavelength of 630 nm, and the proliferation inhibition (PI) was calculated. The formula was as follows: […]
(§1) where Ntest is the OD value of the test group and Ncontrol is the OD value of the blank control group.
The test was repeated 5 times independently. The results obtained from the test were calculated as mean±SD, and statistical t-test was performed. P<0.05 was considered as significant difference, and P<0.01 was considered as extremely significant difference.

[5] = tested on: gastric cancer cell MGC-803; test: MTT assay, proliferation of gastric cancer cell MGC-803; assay type: cell-based; conditions: dose 5 μg/mL
Method: (§2) The MTT assay was used to detect the inhibitory effect of the integrin blocker fusion protein obtained in Example 1 on the proliferation of various tumor cells, including melanoma cell B16F10, gastric cancer cell MGC-803, lung cancer cell A549, liver cancer cell Hep-G2, breast cancer cell MDA-MB-231, colon cancer cell HCT-116, human glioma U87, and cervical cancer cell Hela.
(§3) The tumor cells were cultured in a 5% CO2 incubator at 37° C. to a density of 90% or more, and collected by trypsinization. The cells were resuspended in the culture liquid and counted under a microscope. The cell concentration was adjusted to 3.0×10^4 cells/mL. The cell suspension was inoculated into a 96-well plate at 100 μL per well and cultured overnight in a 5% CO2 incubator at 37° C. […] After the cells were fully adhered, each dilution was added to a 96-well plate at 100 μL per well, respectively. […] 20 μL of 5 mg/mL MTT was added to each well of a 96-well plate, and incubation was continued for 4 hours. The medium was aspirated and 100 μL of DMSO per well were added to dissolve. The absorbance was measured at 570 nm with a microplate reader with a reference wavelength of 630 nm, and the proliferation inhibition (PI) was calculated. The formula is as follows: […]
as §1
(§4) The test was repeated 5 times independently. The results obtained from the test were calculated as mean±SD, and statistical t-test was performed. P<0.05 was considered as a significant difference, and P<0.01 was considered as an extremely significant difference.

[6] = tested on: breast cancer cell MDA-MB-231; test: MTT assay, proliferation of breast cancer cell MDA-MB-231; assay type: cell-based; conditions: dose 5 μg/mL
Method: as §2, §3, §1, §4

[7] = tested on: colon cancer cells HCT-116; test: MTT assay, proliferation of colon cancer cell HCT-116; assay type: cell-based; conditions: dose 5 μg/mL
Method: as §2, §3, §1, §4

[8] = tested on: cervical cancer cell Hela; test: MTT assay, proliferation of cervical cancer cell Hela; assay type: cell-based; conditions: dose 5 μg/mL
Method: as §2, §3, §1, §4

[9] = tested on: melanoma cell line B16F10; test: MTT assay, proliferation of melanoma cell B16F10; assay type: cell-based; conditions: dose 5 μg/mL
Method: as §2, §3, §1, §4

liver cancer cell Hep-G2 = test: MTT assay, proliferation of liver cancer cell Hep-G2; assay type: cell-based; conditions: dose 5 μg/mL
Method: as §2, §3, §1, §4

lung cancer cell A549 = test: MTT assay, proliferation of lung cancer cell A549; assay type: cell-based; conditions: dose 5 μg/mL
Method: as §2, §3, §1, §4

human glioma U87 = test: MTT assay, proliferation of human glioma U87; assay type: cell-based; conditions: dose 5 μg/mL
Method: as §2, §3, §1, §4

CC(=O)Oc1ccccc1C(=O)O [aspirin, reference compound]
Swelling degree ([1]; 2 h after xylene, mice): 3.12 ± 0.34 mg | PI ([1]; ear swelling vs control): 53.08%

CCN(CC)CCNC(=O)c1c(C)[nH]c(/C=C2\C(=O)Nc3ccc(F)cc32)c1C [Sunitinib, reference compound]
MI (%) [2]: 82.13% | Migration cell number [2]: 449.0 ± 153.86

CN(Cc1cnc2nc(N)nc(N)c2n1)c1ccc(C(=O)N[C@@H](CCC(=O)O)C(=O)O)cc1 [methotrexate, reference compound]
Weight gain ([3]; 1 mg/kg (positive drug)): 47.32 ± 17.20 g | Clinical score Whole body ([3]; 1 mg/kg (positive drug), full score 8): 1.31 ± 0.17 | Foot swelling degree Left ([3]; 1 mg/kg (positive drug), left hind foot (primary inflammation)): 1.19 ± 0.20 mL | Clinical score Arthritis index ([3]; 1 mg/kg (positive drug), maximum score 16): 2.00 ± 0.54 | Foot swelling degree Right ([3]; 1 mg/kg (positive drug), right foot (secondary inflammation)): 1.22 ± 0.13 mL | therapeutic effect on primary arthritis (primary toe swelling degree) ([3]; methotrexate group, injection every 5 days for 15 days): the best effect

CC(=O)O[C@H]1C(=O)[C@@]2(C)[C@H]([C@H](OC(=O)c3ccccc3)[C@]3(O)C[C@H](OC(=O)[C@H](O)[C@@H](NC(=O)c4ccccc4)c4ccccc4)C(C)=C1C3(C)C)[C@]1(OC(C)=O)CO[C@@H]1C[C@@H]2O [Taxol, reference compound]
A570 nm/A630 nm [4]: 0.2387 ± 0.0257 | PI [4]: 82.28% | A570 nm/A630 nm [5]: 0.6011 ± 0.0148 | PI (%) [5]: 50.81% | A570 nm/A630 nm [6]: 0.4156 ± 0.0287 | A570 nm/A630 nm [7]: 0.4103 ± 0.0287 | PI (%) [7]: 53.39% | A570 nm/A630 nm [8]: 0.2114 ± 0.0275 | PI (%) [8]: 73.55% | A570 nm/A630 nm [9]: 0.5996 ± 0.0139 | PI (%) [9]: 52.15% | A570 nm/A630 nm (liver cancer cell Hep-G2): 0.3258 | PI (%) (liver cancer cell Hep-G2): 52.42% | A570 nm/A630 nm (lung cancer cell A549): 0.4269 | PI (%) (lung cancer cell A549): 55.93% | A570 nm/A630 nm (human glioma U87): 0.2177 ± 0.0277 | PI (%) (human glioma U87): 68.90%
